Values of other authors as cited in patent publication US6506390B2, “Progestogen-anti-progestogen regimens” (Akzo Nobel, priority 1996, dated 2003).

Legend:
[1] = based on practically applied doses; for relative potency in progestogenic activity: levonorgestrel, desogestrel and 3-keto-desogestrel compared with each other
[2] = as an approximation

## C#C[C@]1(O)CC[C@H]2[C@@H]3CCC4=CC(=O)CC[C@@H]4[C@H]3C(=C)C[C@@]21CC [3-keto-desogestrel]
[1]
  relative potency in progestogenic activity: relatively equipotent

## C#C[C@]1(O)CC[C@H]2[C@@H]3CCC4=CCCC[C@@H]4[C@H]3C(=C)C[C@@]21CC [desogestrel, 13-ethyl-11-methylene-18,19-di-nor-17α-pregn-4-en-20-yn-17-ol]
[1]
  relative potency in progestogenic activity: relatively equipotent

## C#CC1(O)CC[C@H]2[C@@H]3CCC4=CC(=O)CC[C@@H]4[C@H]3CC[C@@]21CC (some centres unmarked) [Norgestrel, norgestrel]
[1]; progestogenic activity
  potency relative to levonorgestrel: about one-half

## C#C[C@]1(O)C=C[C@H]2[C@@H]3CCC4=CC(=O)CC[C@@H]4[C@H]3CC[C@@]21CC [Gestodene, gestodene]
[1]; progestogenic activity
  potency relative to levonorgestrel, desogestrel and 3-keto-desogestrel: approximately 1.5 times

## C#C[C@]1(O)CC[C@H]2[C@@H]3CCc4cc(OC)ccc4[C@H]3CC[C@@]21C [mestranol, 17-α-ethinyl estradiol 3-methylether]
[2]
  amount equivalent in estrogenic activity to 1 mg of 17β-estradiol: ~0.030 mg
